Test results as given in the supplement of paper PMC12613149.

How the values were obtained:
[1] = collision cross section (TIMS, N2 drift gas) of the primary ion; higher = larger gas-phase ion size
[2] = reversed-phase LC retention time (C18, 15 min MeOH gradient); higher = more hydrophobic / later elution
[3] = ionization mode: ESI+, ion species: [M+H]+
[4] = ionization mode: ESI-, ion species: [M-H]-
[5] = ionization mode: ESI+, ion species: [M]+

collision cross section [1, 3]	reversed-phase LC retention time [2, 3]	collision cross section [1, 4]	reversed-phase LC retention time [2, 4]	Compound	collision cross section [1, 5]	reversed-phase LC retention time [2, 5]
167.84 Å²	13.1 min	–	–	CN(C)CCC=C1c2ccccc2CCc2ccccc21 [Amitriptyline]	–	–
148.39 Å²	13.9 min	–	–	O=C1CCCCCCCCCCCN1 [Dodecane-12-lactam]	–	–
148.84 Å²	10.1 min	–	–	CCCCN(CCCC)CCCC [Tributylamine]	–	–
223.95 Å²	12.8 min	224.37 Å²	14.2 min	CC(C)(C(=O)O)c1ccc(C(O)CCCN2CCC(C(O)(c3ccccc3)c3ccccc3)CC2)cc1 (centres undefined) [Fexofenadine]	–	–
–	–	108.15 Å²	1.37 min	O=S(=O)(O)C(F)(F)F [Trifluoromethanesulfonic acid]	–	–
150.15 Å²	2.54 min	–	–	Nc1nc(=O)c2ncn(COCC(=O)O)c2[nH]1 [Carboxy-aciclovir]	–	–
216.41 Å²	5.52 min	210.1 Å²	5.58 min	CN(C(=O)CO)c1c(I)c(C(=O)NCC(O)CO)c(I)c(C(=O)NCC(O)CO)c1I (centres undefined) [Iomeprol]	–	–
132.73 Å²	11.7 min	129.53 Å²	12.9 min	c1ccc2c(c1)[nH]c1ncccc12 [Carboline]	–	–
–	–	168.24 Å²	9.83 min	COc1cc(O)c(C(=O)c2ccccc2)cc1S(=O)(=O)O [Benzophenone-4]	–	–
204.03 Å²	16.5 min	182.17 Å²	11.9 min	C[C@]12CCC(=O)C=C1CC[C@@H]1[C@@H]2[C@@H](O)C[C@]2(C=O)[C@@H](C(=O)CO)CC[C@@H]12 [Aldosterone]	–	–
151.98 Å²	6.95 min	–	–	Cc1c(N(C)C)c(=O)n(-c2ccccc2)n1C [Dimethylaminophenazone]	–	–
–	–	159.15 Å²	0.97 min	O=S(=O)(O)c1ccc2ccc(S(=O)(=O)O)cc2c1 [2,7-Naphthalenedisulfonic acid]	–	–
189.81 Å²	16.8 min	186.89 Å²	17.2 min	O=C(Nc1ccc(F)cc1)c1cccc(Oc2cccc(C(F)(F)F)c2)n1 [Picolinafen]	–	–
141.08 Å²	1.84 min	–	–	CC1(C)CC(N)CC(C)(CN)C1 (centres undefined) [Isophorone diamine]	–	–
221.12 Å²	19.8 min	–	–	CCCCC(CC)COP(=O)(OCC(CC)CCCC)OCC(CC)CCCC (centres undefined) [Tris(2-ethylhexl)phosphate]	–	–
200.88 Å²	13.5 min	195.01 Å²	14.6 min	O=C(O)COCCN1CCN(C(c2ccccc2)c2ccc(Cl)cc2)CC1 (centres undefined) [Cetirizine]	–	–
–	–	134.47 Å²	8.4 min	Cc1ccc(S(N)(=O)=O)cc1 [p-Toluenesulfonamide]	–	–
154.05 Å²	6.69 min	155.15 Å²	6.7 min	Nc1ccc(S(=O)(=O)Nc2ccccn2)cc1 [Sulfapyridine]	–	–
170.74 Å²	12.1 min	173.48 Å²	12 min	CCc1cccc(C)c1N(C(=O)CS(=O)(=O)O)C(C)COC (centres undefined) [Metolachlor ESA]	–	–
–	–	159.1 Å²	14 min	O=C(O)c1ccccc1Nc1cccc(C(F)(F)F)c1 [Flufenamic acid]	–	–
163 Å²	13.9 min	–	–	O=P(c1ccccc1)(c1ccccc1)c1ccccc1 [Triphenylphosphine oxide]	–	–
–	–	–	–	CCCCCCCCCCCC[N+](C)(C)C [Dodecyltrimethylammonium]	176.31 Å²	15.2 min
124.14 Å²	7.48 min	–	–	[O-][n+]1cccc2ccccc21 [Quinoline N-oxide]	–	–
196.72 Å²	11.3 min	–	–	CCC(Cc1ccccc1)(C(=O)c1ccc(N2CCOCC2)cc1)N(C)C (centres undefined) [Irgacure 369]	–	–
–	–	177.92 Å²	13.1 min	O=C(O)c1cc(Oc2ccc(Cl)cc2Cl)ccc1[N+](=O)[O-] [Bifenox free acid]	–	–
–	–	135.07 Å²	0.96 min	O=C(O)Cc1ccc(S(=O)(=O)O)cc1 [(4-Sulfophenyl)acetic acid]	–	–
–	–	–	–	CCCCCCCCCCCCCCCC[n+]1ccccc1 [Hexadecylpyridinium]	197.5 Å²	17.5 min
193.92 Å²	18.9 min	193.31 Å²	19.6 min	CCCCCCCCOc1ccc(C(=O)c2ccccc2)c(O)c1 [2-Hydroxy-4-(octyloxyl)benzophenone]	–	–

Compound	collision cross section [1, 3]	reversed-phase LC retention time [2, 3]	collision cross section [1, 4]	reversed-phase LC retention time [2, 4]	collision cross section [1, 5]	reversed-phase LC retention time [2, 5]
O=C1Nc2ccc(Cl)cc2C(c2ccccc2)=NC1O (centres undefined) [Oxazepam]	164.08 Å²	13.1 min	162.74 Å²	13.4 min	–	–
CCC(C)(c1ccc(O)cc1)c1ccc(O)cc1 [Bisphenol B]	–	–	165.01 Å²	14.3 min	–	–
N#Cc1c(O)c(Cl)c(Cl)c(C#N)c1Cl [Chlorothalonil-4-hydroxy]	–	–	135.03 Å²	11.8 min	–	–
Nc1ccc2c(n1)[nH]c1ccccc12 [2-Amino-9H-pyrido[2,3-b]indole (AalphaC)]	–	–	135.27 Å²	12 min	–	–
O=c1[nH]c2c(c(=O)n1C1CCCCC1)CCC2 [Lenacil]	157.13 Å²	12.8 min	–	–	–	–
CCC1(C2OC(C3OC(O)(CO)C(C)CC3C)CC2C)CCC(C2(C)CCC3(CC(O)C(C)C(C(C)C(OC)C(C)C(=O)O)O3)O2)O1 (centres undefined) [Monensin]	–	–	244.26 Å²	17.5 min	–	–
CO/N=C(\C(=O)OC)c1ccccc1COc1ccccc1C [Kresoxim-methyl]	167.17 Å²	15.4 min	–	–	–	–
Cc1cc(O)ccc1Cl [p-Chlorocresol]	–	–	122.21 Å²	11.6 min	–	–
CS(=O)(=O)c1ccc(C(=O)C2C(=O)CCCC2=O)c(Cl)c1 [Sulcotrione]	175.92 Å²	11.1 min	173.26 Å²	6.87 min	–	–
O=C(Nc1ccccc1-c1ccc(Cl)cc1)c1cccnc1Cl [Boscalid]	177.19 Å²	14.2 min	–	–	–	–
Cc1cc(Cl)ccc1/N=C/N(C)C [Chlordimeform]	145.93 Å²	8.19 min	–	–	–	–
C[C@]12CCC(=O)C=C1CC[C@@H]1[C@@H]2CC[C@]2(C)C(=O)CC[C@@H]12 [4-Androstene-3,17-dione]	172.73 Å²	13.9 min	–	–	–	–
Oc1ccccc1-c1ccccc1O [2,2'-Dihydroxybiphenyl]	–	–	143.93 Å²	15.6 min	–	–
COCCN(C(=O)CCl)c1c(C)cccc1C [Dimethachlor]	152.09 Å²	13.3 min	–	–	–	–
CCOP(=O)(OCC)OCC [Triethylphosphate]	131.26 Å²	10.7 min	–	–	–	–
CC(C)c1cc(C(C)(C)c2ccc(O)c(C(C)C)c2)ccc1O [Bisphenol G]	–	–	187.67 Å²	16.8 min	–	–
CC(C)(C)c1cc([N+](=O)[O-])cc([N+](=O)[O-])c1O [Dinoterb]	–	–	149.2 Å²	12.5 min	–	–
O=C(OC1CCCCC1)c1ccccc1C(=O)OC1CCCCC1 [Dicyclohexylphthalate]	187.61 Å²	17.5 min	–	–	–	–
